According to ChEMBL document CHEMBL3714766, “Tetrahydroisoquinoline compounds and their use as pyruvate dehydrogenase kinase inhibitors” (2015):

What follows are molecules tested against Pyruvate dehydrogenase kinase (Homo sapiens, UniProt Q15119+Q15120+Q16654+Q15118) (assay: Binding affinity to pyruvate dehydrogenase kinase (unknown origin) by VER-00160364 probe based fluorescence polarization assay).

Row | IC50 | SMILES
1 | 100 nM | Cc1c(Cl)nc(Cl)nc1-c1ccc2c(c1)CC[C@H](C)N2C(=O)c1ccc(O)cc1O
2 | 100 nM | COCCNc1ncc(C)c(-c2ccc3c(c2)CC[C@H](C)N3C(=O)c2ccc(O)cc2O)n1
3 | 1000 nM | Cc1cnc(NC2CCCC2)nc1-c1ccc2c(c1)CC[C@H](C)N2C(=O)c1ccc(O)cc1O
4 | 100 nM | C[C@H]1CCc2cc(-c3nc4ccccc4nc3C(F)(F)F)ccc2N1C(=O)c1ccc(O)cc1O
5 | 1000 nM | COc1ccc(-c2ccc3c(c2)CC[C@H](C)N3C(=O)c2ccc(O)cc2O)c(Cl)c1
6 | 100 nM | C[C@H]1CCc2cc(-c3ccc(N4CCCC4)nn3)ccc2N1C(=O)c1ccc(O)cc1O
7 | 100 nM | C[C@H]1CCc2cc(-c3ccnc(N)n3)ccc2N1C(=O)c1ccc(O)cc1O
8 | 100 nM | Cc1nccn1-c1ccc(-c2ccc3c(c2)CC[C@H](C)N3C(=O)c2ccc(O)cc2O)nn1
9 | 1000 nM | C[C@H]1CCc2cc(-c3nc(C(F)(F)F)nc4ccccc34)ccc2N1C(=O)c1ccc(O)cc1O
10 | 100 nM | C[C@H]1CCc2cc(-c3cc4occc4cn3)ccc2N1C(=O)c1ccc(O)cc1O
11 | 1000 nM | C[C@H]1CCc2cc(-c3nc(-c4ccsc4)nc4ccccc34)ccc2N1C(=O)c1ccc(O)cc1O
12 | 100 nM | C[C@H]1CCc2cc(-c3nc4ccc(Cl)cc4cc3CO)ccc2N1C(=O)c1ccc(O)cc1O
13 | 10 nM | C[C@H]1CCc2cc(-c3cc4cncnc4[nH]3)ccc2N1C(=O)c1ccc(O)cc1O
14 | 100 nM | CNc1ccc(-c2ccc3c(c2)CC[C@H](C)N3C(=O)c2ccc(O)cc2O)c(C)n1
15 | 100 nM | Cc1cncnc1-c1ccc2c(c1)CC[C@H](C)N2C(=O)c1ccc(O)cc1O
16 | 10 nM | Cc1cc(Cl)nnc1-c1ccc2c(c1)CC[C@H](C)N2C(=O)c1ccc(O)cc1O
17 | 1000 nM | Cc1cnc(NCCN(C)C)nc1-c1ccc2c(c1)CC[C@H](C)N2C(=O)c1ccc(O)cc1O
18 | 1000 nM | Cc1nc(N(C)C)nc(-c2ccc3c(c2)CC[C@H](C)N3C(=O)c2ccc(O)cc2O)c1C
19 | 100 nM | Cc1cc(-c2ccc3c(c2)CC[C@H](C)N3C(=O)c2ccc(O)cc2O)nnc1Cl
20 | 100 nM | C[C@H]1CCc2cc(-c3nncc4ccccc34)ccc2N1C(=O)c1ccc(O)cc1O
21 | 100 nM | C[C@H]1CCc2cc(-c3ncnc4ccc(Cl)cc34)ccc2N1C(=O)c1ccc(O)cc1O
22 | 100 nM | Cc1cc(S(=O)(=O)N2CCCC2)cnc1-c1ccc2c(c1)CC[C@H](C)N2C(=O)c1ccc(O)cc1O

Row | IC50 | SMILES
23 | 100 nM | CCc1nccnc1-c1ccc2c(c1)CC[C@H](C)N2C(=O)c1ccc(O)cc1O
24 | 10000 nM | C[C@H]1CCc2cc(-c3nc4cc(Cl)ccc4o3)ccc2N1C(=O)c1ccc(O)cc1O
25 | 100 nM | CC(=O)Nc1ccc(-c2ccc3c(c2)CC[C@H](C)N3C(=O)c2ccc(O)cc2O)c(C)n1
26 | 1000 nM | C[C@H]1CCc2cc(-c3nccc4occc34)ccc2N1C(=O)c1ccc(O)cc1O
27 | 10 nM | Cc1cc(S(=O)(=O)N(C)C)cnc1-c1ccc2c(c1)CC[C@H](C)N2C(=O)c1ccc(O)cc1O
28 | 1000 nM | Cc1cc2cc(F)ccc2nc1-c1ccc2c(c1)CC[C@H](C)N2C(=O)c1ccc(O)cc1O
29 | 1000 nM | C[C@H]1CCc2cc(-c3ccc(OCCN4CCCC4)nn3)ccc2N1C(=O)c1ccc(O)cc1O
30 | 1000 nM | Cc1ccc(-c2ccc3c(c2)CC[C@H](C)N3C(=O)c2ccc(O)cc2O)c(Cl)c1
31 | 100 nM | C[C@H]1CCc2cc(-c3cc4nccnc4cn3)ccc2N1C(=O)c1ccc(O)cc1O
32 | 100 nM | Cc1ccc[n+]([O-])c1-c1ccc2c(c1)CC[C@H](C)N2C(=O)c1ccc(O)cc1O
33 | 100 nM | CCCc1cncnc1-c1ccc2c(c1)CC[C@H](C)N2C(=O)c1ccc(O)cc1O
34 | 100 nM | C[C@H]1CCc2cc(-c3ccc(N)nn3)ccc2N1C(=O)c1ccc(O)cc1O
35 | 1000 nM | C[C@H]1CCc2cc(-c3nc(-c4ccccc4)nc4ccccc34)ccc2N1C(=O)c1ccc(O)cc1O
36 | 1000 nM | Cc1cc(-c2ccc3c(c2)CC[C@H](C)N3C(=O)c2ccc(O)cc2O)cnc1Cl
37 | 100 nM | C[C@H]1CCc2cc(-c3ncccc3CO)ccc2N1C(=O)c1ccc(O)cc1O
38 | 1000 nM | C[C@H]1CCc2cc(-c3cnc4ccccc4n3)ccc2N1C(=O)c1ccc(O)cc1O
39 | 10 nM | Cc1cc(S(=O)(=O)NCc2ccccc2)cnc1-c1ccc2c(c1)CC[C@H](C)N2C(=O)c1ccc(O)cc1O
40 | 1000 nM | CCOc1ccc2nc(-c3ccc4c(c3)CC[C@H](C)N4C(=O)c3ccc(O)cc3O)c(C)cc2c1
41 | 100 nM | C[C@H]1CCc2cc(-c3ccc(-n4ccnc4)nn3)ccc2N1C(=O)c1ccc(O)cc1O
42 | 100 nM | COc1cc(-c2ccc3c(c2)CC[C@H](C)N3C(=O)c2ccc(O)cc2O)cnc1OC
43 | 100 nM | C[C@H]1CCc2cc(-c3nc(C(N)=O)nc4ccccc34)ccc2N1C(=O)c1ccc(O)cc1O
44 | 100 nM | Cc1cnc(C)c(-c2ccc3c(c2)CC[C@H](C)N3C(=O)c2ccc(O)cc2O)n1

Row | IC50 | SMILES
45 | 1000 nM | CCc1cc2ccccc2nc1-c1ccc2c(c1)CC[C@H](C)N2C(=O)c1ccc(O)cc1O
46 | 100 nM | Cc1cn(-c2ccc(-c3ccc4c(c3)CC[C@H](C)N4C(=O)c3ccc(O)cc3O)nn2)cn1
47 | 1000 nM | CSc1nc2c(c(-c3ccc4c(c3)CC[C@H](C)N4C(=O)c3ccc(O)cc3O)n1)CCC2
48 | 100 nM | CCc1cnc(C)nc1-c1ccc2c(c1)CC[C@H](C)N2C(=O)c1ccc(O)cc1O
49 | 100 nM | CCOC(=O)c1nc(-c2ccc3c(c2)CC[C@H](C)N3C(=O)c2ccc(O)cc2O)c2ccccc2n1
50 | 1000 nM | Cc1c(-c2ccc3c(c2)CC[C@H](C)N3C(=O)c2ccc(O)cc2O)ccc2[nH]ncc12
51 | 10000 nM | C[C@H]1CCc2cc(-c3ccc(-c4ccccc4)cn3)ccc2N1C(=O)c1ccc(O)cc1O
52 | 100 nM | COc1ccccc1-c1ccc2c(c1)CC[C@H](C)N2C(=O)c1ccc(O)cc1O
53 | 100 nM | COc1ccc2nc(-c3ccc4c(c3)CC[C@H](C)N4C(=O)c3ccc(O)cc3O)c(C)cc2c1
54 | 100 nM | CNc1nnc(-c2ccc3c(c2)CC[C@H](C)N3C(=O)c2ccc(O)cc2O)c2ccccc12
55 | 100 nM | C[C@H]1CCc2cc(-c3ncncc3C#N)ccc2N1C(=O)c1ccc(O)cc1O
56 | 1000 nM | CSc1nc(Cl)cc(-c2ccc3c(c2)CC[C@H](C)N3C(=O)c2ccc(O)cc2O)n1
57 | 100 nM | CC(=O)Nc1ccc(-c2ccc3c(c2)CC[C@H](C)N3C(=O)c2ccc(O)cc2O)c(C)c1
58 | 1000 nM | Cc1cc2cc(Cl)ccc2nc1-c1ccc2c(c1)CC[C@H](C)N2C(=O)c1ccc(O)cc1O
59 | 1000 nM | C[C@H]1CCc2cc(-c3cccc(C#N)c3)ccc2N1C(=O)c1ccc(O)cc1O
60 | 100 nM | C[C@H]1CCc2cc(-c3ccncc3C(F)(F)F)ccc2N1C(=O)c1ccc(O)cc1O
61 | 10000 nM | C[C@H]1CCc2cc(-c3ccc(-c4ccccc4Cl)cn3)ccc2N1C(=O)c1ccc(O)cc1O
62 | 1000 nM | NC(=O)COc1ccc2c(c1)CCCN2C(=O)c1ccc(O)cc1O
63 | 100 nM | C[C@H]1CCc2cc(-c3nc4ccccc4cc3CO)ccc2N1C(=O)c1ccc(O)cc1O
64 | 1000 nM | C[C@H]1CCc2cc(-c3ccccc3Cl)ccc2N1C(=O)c1ccc(O)cc1O
65 | 1000 nM | C[C@H]1CCc2cc(-c3nc(C(F)(F)F)ccc3C(F)(F)F)ccc2N1C(=O)c1ccc(O)cc1O
66 | 1000 nM | CCOC(=O)c1nc(C)nc(-c2ccc3c(c2)CC[C@H](C)N3C(=O)c2ccc(O)cc2O)c1C

Row | IC50 | SMILES
67 | 100 nM | Cc1nc(NS(C)(=O)=O)ccc1-c1ccc2c(c1)CC[C@H](C)N2C(=O)c1ccc(O)cc1O
68 | 100 nM | Cc1cc(S(=O)(=O)NCc2ccn(C)n2)cnc1-c1ccc2c(c1)CC[C@H](C)N2C(=O)c1ccc(O)cc1O
69 | 100 nM | Cc1ccc(C)c(-c2ccc3c(c2)CC[C@H](C)N3C(=O)c2ccc(O)cc2O)n1
70 | 100 nM | Cc1cc(-c2ccc3c(c2)CC[C@H](C)N3C(=O)c2ccc(O)cc2O)cnc1N
71 | 10 nM | Cc1cc(S(=O)(=O)N2CCCCC2)cnc1-c1ccc2c(c1)CC[C@H](C)N2C(=O)c1ccc(O)cc1O
72 | 100 nM | Cc1cc(CNc2ccc(-c3ccc4c(c3)CC[C@H](C)N4C(=O)c3ccc(O)cc3O)c(C)n2)on1
73 | 1000 nM | C[C@H]1CCc2cc(-c3ccc(Cl)cc3Cl)ccc2N1C(=O)c1ccc(O)cc1O
74 | 1000 nM | COc1cc2ncnc(-c3ccc4c(c3)CC[C@H](C)N4C(=O)c3ccc(O)cc3O)c2cc1OC
75 | 100 nM | CNc1nccc(-c2ccc3c(c2)CC[C@H](C)N3C(=O)c2ccc(O)cc2O)n1
76 | 100 nM | Cc1cnc(OCCN(C)C)nc1-c1ccc2c(c1)CC[C@H](C)N2C(=O)c1ccc(O)cc1O
77 | 1000 nM | COc1ccc(OC)c(-c2ccc3c(c2)CC[C@H](C)N3C(=O)c2ccc(O)cc2O)c1
78 | 1000 nM | COc1cc(-c2ccc3c(c2)CC[C@H](C)N3C(=O)c2ccc(O)cc2O)ncn1
79 | 1000 nM | C[C@H]1CCc2cc(-c3ccc(NC4CC4)nn3)ccc2N1C(=O)c1ccc(O)cc1O
80 | 100 nM | Cc1nc(N)ccc1-c1ccc2c(c1)CC[C@H](C)N2C(=O)c1ccc(O)cc1O
81 | 100 nM | Cc1nc(-c2ccc3c(c2)CC[C@H](C)N3C(=O)c2ccc(O)cc2O)c2ccccc2n1
82 | 10 nM | Cc1ncc(C)c(-c2ccc3c(c2)CC[C@H](C)N3C(=O)c2ccc(O)cc2O)n1
83 | 1000 nM | Cc1cc2cccc(C)c2nc1-c1ccc2c(c1)CC[C@H](C)N2C(=O)c1ccc(O)cc1O
84 | 1000 nM | C[C@H]1CCc2cc(-c3ccc(N4CCOCC4)nn3)ccc2N1C(=O)c1ccc(O)cc1O
85 | 10 nM | Cc1cc(S(=O)(=O)NCCN(C)C)cnc1-c1ccc2c(c1)CC[C@H](C)N2C(=O)c1ccc(O)cc1O
86 | 100 nM | Cc1cc2ccc(F)cc2nc1-c1ccc2c(c1)CC[C@H](C)N2C(=O)c1ccc(O)cc1O
87 | 1000 nM | C[C@H]1CCc2cc(-c3ccc(Cl)nc3)ccc2N1C(=O)c1ccc(O)cc1O
88 | 100 nM | Cc1nccnc1-c1ccc2c(c1)CC[C@H](C)N2C(=O)c1ccc(O)cc1O
